From the supplement of paper PMC10307832

Tests used:
Assay in all cases: relative viability (nuclei count vs DMSO), 5 days (fraction); higher = more cells survive
Nelarabine + Palbociclib = compound: COc1nc(N)nc2c1ncn2[C@@H]1O[C@H](CO)[C@@H](O)[C@@H]1O [Nelarabine] + CC(=O)c1c(C)c2cnc(Nc3ccc(N4CCNCC4)cn3)nc2n(C2CCCC2)c1=O [Palbociclib] (partner 0.5 µM)
How it was run: (§1)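 After 5 days of treatment, lung cancer cells in 1536-well plates were fixed and stained in a single step (final 0.05% Triton X-100, 1% formaldehyde, 1 ug/ml Hoechst) and their nuclei counted on 4× images. Treatment had been applied by pin tool the day after seeding as one drug alone or as a fixed anchor-drug dose with five library-drug doses (not always all listed) in √10 steps. Relative viability is the nuclei count of treated wells divided by that of vehicle wells, and values are medians of duplicate plates.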

Nelarabine + Bortezomib = compound: COc1nc(N)nc2c1ncn2[C@@H]1O[C@H](CO)[C@@H](O)[C@@H]1O [Nelarabine] + CC(C)C[C@H](NC(=O)[C@H](Cc1ccccc1)NC(=O)c1cnccn1)B(O)O [Bortezomib] (partner 0.002 µM)
How it was run: as §1

Nelarabine + AZD7762 = compound: COc1nc(N)nc2c1ncn2[C@@H]1O[C@H](CO)[C@@H](O)[C@@H]1O [Nelarabine] + NC(=O)Nc1cc(-c2cccc(F)c2)sc1C(=O)N[C@H]1CCCNC1 [AZD7762] (partner 0.2 µM)
How it was run: as §1

Adavosertib + Alpelisib = compound: C=CCn1c(=O)c2cnc(Nc3ccc(N4CCN(C)CC4)cc3)nc2n1-c1cccc(C(C)(C)O)n1 [Adavosertib] + Cc1nc(NC(=O)N2CCC[C@H]2C(N)=O)sc1-c1ccnc(C(C)(C)C(F)(F)F)c1 [Alpelisib] (partner 2 µM)
How it was run: as §1

| Cell Line | relative viability (Nelarabine + Palbociclib; first compound 0.01 µM) | relative viability (Nelarabine + Palbociclib; first compound 0.03162 µM) | relative viability (Nelarabine + Palbociclib; first compound 0.1 µM) | relative viability (Nelarabine + Palbociclib; first compound 0.3162 µM) | relative viability (Nelarabine + Palbociclib; first compound 1 µM) | relative viability (Nelarabine + Bortezomib; first compound 0.01 µM) | relative viability (Nelarabine + Bortezomib; first compound 0.03162 µM) | relative viability (Nelarabine + Bortezomib; first compound 0.1 µM) | relative viability (Nelarabine + Bortezomib; first compound 0.3162 µM) | relative viability (Nelarabine + Bortezomib; first compound 1 µM) | relative viability (Nelarabine + AZD7762; first compound 0.01 µM) | relative viability (Nelarabine + AZD7762; first compound 0.03162 µM) | relative viability (Nelarabine + AZD7762; first compound 0.1 µM) | relative viability (Nelarabine + AZD7762; first compound 0.3162 µM) | relative viability (Nelarabine + AZD7762; first compound 1 µM) | relative viability (Adavosertib + Alpelisib; first compound 0.01 µM) | relative viability (Adavosertib + Alpelisib; first compound 0.03162 µM) | relative viability (Adavosertib + Alpelisib; first compound 0.1 µM) | relative viability (Adavosertib + Alpelisib; first compound 0.3162 µM) |
| --- | --- | --- | --- | --- | --- | --- | --- | --- | --- | --- | --- | --- | --- | --- | --- | --- | --- | --- | --- |
| HARA | 0.202 | 0.253 | 0.228 | 0.273 | 0.287 | 1.19 | 1.08 | 1.16 | 1.21 | 1.02 | 0.426 | 0.284 | 0.307 | 0.441 | 0.373 | 0.746 | 0.858 | 0.814 | 0.63 |
| NCI-H2126 | 0.347 | 0.352 | 0.326 | 0.353 | 0.403 | 1.18 | 1.14 | 1.11 | 1.12 | 1.01 | 1.02 | 1.07 | 1.05 | 1.04 | 0.997 | 0.75 | 0.767 | 0.675 | 0.752 |
| NCI-H1703 | – | – | – | – | – | 0.364 | 0.162 | 0.405 | 0.303 | 0.448 | 0.17 | 0.0897 | 0.132 | 0.131 | 0.104 | 0.367 | 0.361 | 0.304 | 0.147 |
| UMC-11 | 0.361 | 0.269 | 0.318 | 0.332 | 0.351 | 0.928 | 0.572 | 0.924 | 0.816 | 0.535 | – | – | – | – | – | 1.03 | 1.02 | 1.18 | 1.04 |
| PC-14 | 0.705 | 0.53 | 0.582 | 0.601 | 0.706 | 1.14 | 0.898 | 0.854 | 0.828 | 0.841 | 0.382 | 0.319 | 0.447 | 0.417 | 0.304 | 0.944 | 0.883 | 0.948 | 0.493 |
| NCI-H1792 | – | 0.58 | 0.904 | 0.78 | 0.922 | 1.28 | – | 1.05 | 1.17 | 0.85 | 0.854 | 0.69 | 1.1 | 0.68 | 0.6 | 0.67 | 0.649 | 0.697 | 0.48 |
| NCI-H1651 | 0.566 | 0.596 | 0.553 | 0.512 | 0.522 | 1 | 0.873 | 1.02 | 0.977 | 0.817 | 0.495 | 0.53 | 0.452 | 0.518 | 0.422 | 0.833 | 1.06 | 0.936 | 0.687 |
| HCC-15 | 0.847 | 0.695 | 0.788 | 0.837 | 0.677 | 1.33 | 0.917 | 1.18 | 1.11 | 1.14 | 1.47 | 1.15 | 0.967 | 1.17 | 1.19 | 0.904 | 0.916 | 0.987 | 1.04 |
| NCI-H2170 | 0.438 | 0.337 | 0.385 | 0.395 | 0.405 | – | – | – | – | – | 1.15 | 0.869 | 0.843 | 0.932 | 0.709 | 0.849 | 0.804 | 0.678 | 0.705 |
| SW 1573 | 0.465 | 0.382 | 0.41 | 0.399 | 0.338 | 1.63 | 1.12 | 1.18 | 1.25 | 1.1 | – | – | – | – | – | 0.724 | 0.786 | 0.751 | 0.761 |
| NCI-H661 | 0.386 | 0.401 | 0.402 | 0.403 | 0.422 | 0.986 | 0.932 | 0.866 | 0.912 | 0.866 | – | – | – | – | – | 0.492 | 0.968 | 0.503 | 0.595 |
| PC-3 [JPC-3] | 0.562 | 0.544 | 0.524 | 0.526 | 0.533 | 1.08 | 0.905 | 0.826 | 0.743 | 0.776 | 0.9 | 0.764 | 0.761 | 0.957 | 0.792 | 0.99 | 1.03 | 1.08 | 1.07 |
| NCI-H358 | 0.121 | 0.136 | 0.129 | 0.127 | 0.139 | – | – | – | – | – | 0.605 | 0.395 | 0.386 | 0.501 | 0.586 | 0.831 | 0.769 | 0.693 | 0.336 |
| COR-L23 | 0.4 | 0.243 | 0.26 | 0.267 | 0.282 | 1.33 | 1.08 | 1.08 | 0.942 | 0.983 | – | – | – | – | – | 0.778 | 0.687 | 0.729 | 0.243 |
| IA-LM | – | – | – | – | – | 0.989 | 1.04 | 0.986 | 0.927 | 0.748 | – | – | – | – | – | 0.649 | 0.731 | 0.833 | 0.931 |
| ABC-1 | 0.624 | 0.553 | 0.762 | 0.625 | 0.692 | 0.28 | 0.319 | 0.251 | 0.245 | 0.297 | – | 0.839 | 0.766 | 0.845 | 0.78 | 0.993 | 1.04 | 1.28 | 1.08 |
| RERF-LC-KJ | 1.13 | 1.17 | 1.09 | 1.17 | 0.97 | 1.03 | 1.39 | 1.24 | 1.29 | 1.33 | 0.993 | 1.11 | 1.02 | 1.15 | 1.08 | 0.855 | 0.784 | 0.764 | 0.793 |
| NCI-H1563 | – | – | – | – | – | 0.943 | 0.903 | 0.766 | 0.84 | 0.908 | – | – | – | – | – | 0.924 | 0.943 | 0.949 | 1.12 |
| A-427 | 0.528 | 0.533 | 0.56 | 0.533 | 0.53 | 1.01 | 0.846 | 1.01 | 0.895 | 0.961 | 0.781 | 0.62 | 0.599 | 0.62 | 0.572 | 1.08 | 1.11 | 1.1 | 1.04 |
| EKVX | 0.373 | 0.356 | 0.549 | 0.348 | 0.361 | 1.35 | 0.853 | 1.05 | 1.25 | 1.14 | 0.977 | 0.63 | 0.606 | 0.717 | 0.732 | 0.843 | 0.858 | 0.833 | 0.911 |
